Assay results: patent US8129396B2, “2-[1H-benzimidazol-2(3H)-ylidene]-2-(pyrimidin-2-yl)acetamides and 2-[benzothiazol-2(3H)-ylidene]-2-(pyrimidin-2-yl)acetamides as kinase inhibitors” (Telik, Inc., priority 2008, dated 2012)

Experiments:
[1] = system: HCT116 (human colon carcinoma) cells; test: HCT116 cytotoxicity assay (CellTiter-Glo); format: cell-based; details: HCT-116, 72 h, cytotoxicity, three days culture, read-out: HCT116 IC50
From the text: (§1) The cell lines HL60 (human promyelocytic leukemia) and HCT116 (human colon carcinoma) were obtained from the American Type Culture Collection, Manassas, Va., U.S.A., and HUVEC-2 (human umbilical vein endothelial cells) from BD Biosciences, Bedford, Mass., U.S.A. Aurora A kinase was obtained from Upstate Biotech, Billerica, Mass., U.S.A.; Aurora B kinase from BPS Bioscience, San Diego, Calif., U.S.A.; and VEGFR2 kinase from Cell Signaling Technology, Danvers, Mass., U.S.A. The IMAP FP Screening Express kit was obtained from Molecular Devices, Sunnyvale, Calif., U.S.A.; the CellTiter-Glo assay kit from Promega Corporation, Madison, Wis., U.S.A.; and the Cellular DNA Cytometric Analysis Reagent Kit and BrdU labeling and detection kit from Roche Diagnostics Corporation, Indianapolis, Ind., U.S.A. All products were used in accordance with manufacturer's directions. Kinase inhibition assays and the histone phosphorylation (p-H3) assay were conducted in duplicate, and the cytotoxicity and HUVEC proliferation assays were conducted in triplicate, in each case with solvent control.
Log-phase cells were trypsinized, collected by centrifugation, and resuspended in a small volume of fresh medium, and the density of viable cells was determined following Trypan Blue staining. Cells were diluted in fresh media (1×10^4 cells/mL for HL60 and 4×10^4 cells/mL for HCT116 cells), the test compounds (concentrations between 0.1 μM and 200 μM, dissolved in DMSO, 50 μL) added immediately after dilution to achieve a final DMSO concentration of 0.5%, then the suspensions added at 150 μL/well to 96-well plates, and incubated overnight to allow attachment in the case of adherent cells. The cells were cultured for three days (about three doubling times). The cells were then collected by centrifugation, and 100 μL of the culture supernatant was replaced by the CellTiter-Glo reagent. After incubation for 15 minutes at room temperature, the plate was read with a luminometer.

VEGFR2 kinase = target: T1, VEGFR2 kinase (Homo sapiens, UniProt P35968); test: VEGFR2 kinase assay; format: biochemical; details: 6 μM ATP, 1 mM MnCl2; rounded to 1 significant figure
T1 construct: purchased Cell Signaling Technology
T1 sequence (P35968 20-1356): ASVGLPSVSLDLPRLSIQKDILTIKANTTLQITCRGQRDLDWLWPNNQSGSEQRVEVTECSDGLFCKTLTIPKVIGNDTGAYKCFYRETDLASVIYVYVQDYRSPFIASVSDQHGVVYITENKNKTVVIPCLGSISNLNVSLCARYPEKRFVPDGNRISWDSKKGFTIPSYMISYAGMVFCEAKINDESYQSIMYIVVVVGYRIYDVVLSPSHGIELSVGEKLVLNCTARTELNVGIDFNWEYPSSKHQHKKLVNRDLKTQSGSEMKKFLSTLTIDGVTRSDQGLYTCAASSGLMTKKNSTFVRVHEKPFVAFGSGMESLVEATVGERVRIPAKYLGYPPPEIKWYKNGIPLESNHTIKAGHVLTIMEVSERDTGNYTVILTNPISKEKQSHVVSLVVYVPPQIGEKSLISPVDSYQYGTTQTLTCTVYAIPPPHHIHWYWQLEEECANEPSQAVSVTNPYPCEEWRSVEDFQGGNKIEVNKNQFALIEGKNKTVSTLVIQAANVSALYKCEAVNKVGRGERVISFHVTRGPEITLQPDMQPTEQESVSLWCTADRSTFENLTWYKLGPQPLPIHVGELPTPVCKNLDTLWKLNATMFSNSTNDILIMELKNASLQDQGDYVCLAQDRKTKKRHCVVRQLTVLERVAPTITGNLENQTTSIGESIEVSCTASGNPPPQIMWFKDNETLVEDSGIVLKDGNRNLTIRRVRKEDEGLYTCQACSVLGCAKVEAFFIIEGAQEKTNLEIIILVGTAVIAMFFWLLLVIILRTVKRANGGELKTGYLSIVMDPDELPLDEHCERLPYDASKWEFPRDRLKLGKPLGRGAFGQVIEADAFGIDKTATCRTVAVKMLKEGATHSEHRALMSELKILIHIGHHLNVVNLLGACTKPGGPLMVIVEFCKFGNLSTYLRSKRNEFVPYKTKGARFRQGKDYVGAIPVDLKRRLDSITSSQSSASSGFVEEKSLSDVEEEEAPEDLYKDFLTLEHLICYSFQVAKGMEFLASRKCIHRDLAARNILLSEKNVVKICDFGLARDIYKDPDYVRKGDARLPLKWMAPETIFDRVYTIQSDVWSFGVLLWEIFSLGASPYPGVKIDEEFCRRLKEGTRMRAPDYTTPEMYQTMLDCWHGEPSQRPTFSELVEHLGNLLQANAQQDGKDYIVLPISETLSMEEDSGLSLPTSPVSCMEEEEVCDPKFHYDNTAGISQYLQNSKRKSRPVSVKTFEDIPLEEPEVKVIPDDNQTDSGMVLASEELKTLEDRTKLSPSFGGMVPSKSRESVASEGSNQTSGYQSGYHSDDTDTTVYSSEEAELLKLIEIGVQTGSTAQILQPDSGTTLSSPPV
From the text: as §1
This assay was performed as for the Aurora A kinase assay, using VEGFR2 kinase, CSKtide as the substrate with 6 μM ATP and 1 mM MnCl2, a kinase reaction time of 1 hr, and dilution of the binding reagent 1:1200 in binding buffer A/binding buffer B (1:1).

[2] = system: HUVEC-2 (human umbilical vein endothelial cells); test: HUVEC VEGF-dependent proliferation assay (BrdU); format: cell-based; details: VEGF (25 ng/mL)-dependent proliferation, read-out: HUVEC IC50
From the text: as §1
HUVEC-2 cells were seeded at 10^4 cells/well in a 96-well plate coated with 0.1% gelatin in complete medium. […] The compounds were serially diluted in DMSO, and added to the cells at 0.5% DMSO final concentration. After 2 hr, VEGF (25 ng/mL) was added; and after a further day, 5-bromo-2-deoxyuridine (BrdU, 10 μM) was added to label proliferating cells, and the cells incubated for another day. The plates were then processed using the Roche BrdU labeling and detection kit, and the VEGF-dependent antiproliferative activity of the compounds determined.

p-H3 in HCT116 cells = test: Histone phosphorylation (p-H3) assay; format: cell-based; details: Homo sapiens, HCT-116; HCT116 cells, 4 hr incubation; read-out: p-H3 IC50
From the text: as §1
Log phase HCT116 cells were seeded at 2.5×10^4 cells/well in a 96-well plate and allowed to attach overnight. The test compounds were diluted in DMSO (8 concentrations with serial 3-fold dilutions) and added to the cells (0.5% DMSO final concentration), and the cells incubated for 4 hr. The cells were then washed three times with cold phosphate-buffered saline (PBS), and lysis buffer was added. After 30 min shaking at 4° C. and centrifugation, the supernatants were transferred to a nitrocellulose membrane by a “dot-blot” apparatus. After washing the wells, the membrane was processed for Western blot. Detection of p-H3 and β-actin was performed on the same membrane with primary rabbit anti-p-H3 and mouse anti-β-actin antibodies followed by secondary goat anti-rabbit IRDye800 and goat anti-mouse AlexaFluor 680 antibodies. The membranes were scanned on an Odyssey scanner.

Aurora A kinase = target: T2, Aurora A kinase (Homo sapiens, UniProt O14965); test: Aurora A kinase assay (IMAP fluorescence polarization); format: biochemical; details: 10 μM ATP; rounded to 1 significant figure; read-out: Aur-A IC50
T2 construct: purchased Upstate Biotech
T2 sequence (O14965 1-403): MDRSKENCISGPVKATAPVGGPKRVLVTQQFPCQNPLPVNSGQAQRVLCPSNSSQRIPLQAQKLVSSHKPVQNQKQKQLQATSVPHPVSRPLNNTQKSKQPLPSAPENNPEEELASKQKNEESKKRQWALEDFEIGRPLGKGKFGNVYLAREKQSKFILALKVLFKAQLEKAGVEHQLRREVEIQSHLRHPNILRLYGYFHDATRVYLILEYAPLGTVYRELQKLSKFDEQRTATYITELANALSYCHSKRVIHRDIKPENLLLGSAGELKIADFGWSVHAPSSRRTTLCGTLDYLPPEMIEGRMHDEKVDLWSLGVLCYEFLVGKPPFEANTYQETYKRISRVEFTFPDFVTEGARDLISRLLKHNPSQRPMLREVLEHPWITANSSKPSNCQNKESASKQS
From the text: as §1
Aurora A kinase assay: the test compounds were diluted in dimethylsulfoxide (DMSO, eight concentrations with serial 3-fold dilutions) and incubated (final DMSO concentration 2.5%) with Aurora A kinase at room temperature for 5 min in kinase reaction buffer with 1 mM dithiothreitol (IMAP FP Screening Express). The kinase reaction was initiated by adding 100 nM fluorescein labeled PKAtide and 10 μM adenosine triphosphate (ATP), and allowed to continue for 45 min at room temperature, after which it was stopped by adding binding reagent (1:400 dilution in binding buffer A). After 30 min of room temperature incubation with shaking, the fluorescence polarization was measured on a LJL plate reader. Aurora B kinase assay: performed as for the Aurora A kinase assay, but using Aurora B kinase instead of Aurora A kinase.

Aurora B kinase = target: T3, Aurora B kinase (Homo sapiens, UniProt Q96GD4); test: Aurora B kinase assay (IMAP fluorescence polarization); format: biochemical; details: 10 μM ATP; rounded to 1 significant figure; read-out: Aur-B IC50
T3 construct: purchased BPS Bioscience
T3 sequence (Q96GD4 whole entry): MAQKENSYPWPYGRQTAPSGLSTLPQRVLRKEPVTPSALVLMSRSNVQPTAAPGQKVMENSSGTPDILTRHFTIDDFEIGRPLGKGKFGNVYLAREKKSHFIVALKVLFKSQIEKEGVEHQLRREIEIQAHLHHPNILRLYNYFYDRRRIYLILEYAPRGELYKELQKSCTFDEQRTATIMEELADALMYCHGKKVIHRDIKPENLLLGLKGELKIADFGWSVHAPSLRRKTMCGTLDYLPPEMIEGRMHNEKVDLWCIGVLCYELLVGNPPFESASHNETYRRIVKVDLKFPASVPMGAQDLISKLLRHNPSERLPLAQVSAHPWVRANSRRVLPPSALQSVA
From the text: as §1
The kinase reaction was initiated by adding 100 nM fluorescein labeled PKAtide and 10 μM adenosine triphosphate (ATP), and allowed to continue for 45 min at room temperature, after which it was stopped by adding binding reagent (1:400 dilution in binding buffer A). After 30 min of room temperature incubation with shaking, the fluorescence polarization was measured on a LJL plate reader. Aurora B kinase assay: performed as for the Aurora A kinase assay, but using Aurora B kinase instead of Aurora A kinase.

SMILES | IC50 [1] [nM] | IC50 (VEGFR2 kinase) [nM] | IC50 [2] [nM] | IC50 (p-H3 in HCT116 cells) [nM] | IC50 (Aurora A kinase) [nM] | IC50 (Aurora B kinase) [nM]
CN1CCN(c2ccc3c(c2)N/C(=C(/C(N)=O)c2nccc(C(F)(F)F)n2)N3)CC1 [Compound 119A] | 1000 | 6 | 200 | 200 | 9 | 6
CN1CCN(CCCOc2ccc3c(c2)S/C(=C(/C(N)=O)c2nccc(C(F)(F)F)n2)N3)CC1 [Compound 115A] | 100 | 20 | 100 | 200 | 40 | 30
NC(=O)/C(=C1\Nc2ccccc2S1)c1ncc(C(=O)NCCN2CCOCC2)c(C(F)(F)F)n1 [Compound 134A] | 4000 | 80 | 600 | 400 | 50 | 10
NCC(=O)Nc1ccc2c(c1)SC(=C(C(N)=O)c1nccc(C(F)(F)F)n1)N2 (single isomer, unassigned) [Compound 76A, 2-{6-[(2-aminoacetyl)-amino]benzothiazol-2(3H)-ylidene}-2-(4-trifluoromethylpyrimidin-2-yl)acetamide] | 700 | 80 | 100 | 200 | 50 | 5
NC(=O)/C(=C1\Nc2ccc(NCCN3CCOCC3)cc2S1)c1nccc(C(F)(F)F)n1 [Compound 124A] | > 20000 | 100 | 3000 | – | 30 | 30
Cc1cc2c(cc1C)NC(=C(C(N)=O)c1ncc(C(=O)NCCCN3CCOCC3)c(C(F)(F)F)n1)N2 [Compound 133A] | 800 | 60 | 200 | 300 | 40 | 10
NC(=O)/C(=C1\Nc2ccc(C(=O)N3CC[C@@H](N)C3)cc2N1)c1nccc(C(F)(F)F)n1 [Compound 68A] | 100 | 3 | 60 | 60 | 10 | 10
CN1CCN(C(=O)c2ccc3c(c2)S/C(=C(/C(N)=O)c2nccc(C(F)(F)F)n2)N3)CC1 [Compound 59A] | 400 | 6 | 50 | 90 | 8 | 20
CCN1CCN(CCCNC(=O)c2ccc3c(c2)N/C(=C(/C(N)=O)c2nccc(C(F)(F)F)n2)N3)CC1 [Compound 55A] | 300 | 20 | 50 | 700 | 20 | 20
NC(=O)C(=C1Nc2ccccc2N1)c1ncc(C(=O)NCCCN2CCOCC2)c(C(F)(F)F)n1 [Compound 132A] | 1000 | 100 | 600 | 2000 | 60 | 20
CN1CCN(S(=O)(=O)c2ccc3c(c2)S/C(=C(/C(N)=O)c2nccc(C(F)(F)F)n2)N3)CC1 [Compound 126A] | 2000 | 70 | 30 | 2000 | 20 | 20
NC(=O)/C(=C1\Nc2ccc(OCCCN3CCOCC3)cc2S1)c1nccc(C(F)(F)F)n1 [Compound 113A] | 600 | 40 | 200 | 400 | 30 | 20
NC(=O)/C(=C1\Nc2ccc(S(=O)(=O)N3CCNCC3)cc2S1)c1nccc(C(F)(F)F)n1 [Compound 129A] | 1000 | 100 | 300 | 1000 | 30 | 10
NC(=O)/C(=C1\Nc2ccc(N3CCC(N4CCCCC4)CC3)cc2S1)c1nccc(C(F)(F)F)n1 [Compound 121A] | 1000 | 20 | 900 | 90 | 30 | 8
NC(=O)C(=C1Nc2ccccc2N1)c1ncc(C(=O)NCCN2CCOCC2)c(C(F)(F)F)n1 [Compound 135A] | 4000 | 100 | 600 | 500 | 30 | 20
CN1CCCCC1C(=O)Nc1ccc2c(c1)N/C(=C(/C(N)=O)c1nccc(C(F)(F)F)n1)N2 (centres unmarked) [Compound 82A] | 80 | 10 | 30 | 400 | 8 | 7
NC(=O)/C(=C1\Nc2ccc(OCCN3CCOCC3)cc2S1)c1nccc(C(F)(F)F)n1 [Compound 111A] | 2000 | 100 | 300 | 400 | 20 | 9
NC(=O)/C(=C1\Nc2ccc(C(=O)N3CC[C@@H](N)C3)cc2S1)c1nccc(C(F)(F)F)n1 [Compound 69A] | 90 | 2 | 20 | 100 | 20 | 30
NC(=O)/C(=C1\Nc2ccc(C(=O)O)cc2N1)c1nccc(C(F)(F)F)n1 [Compound 28A] | 4000 | 10 | 40 | 4000 | 5 | 5
NC(=O)/C(=C1\Nc2ccc(C(=O)NC3CCNCC3)cc2S1)c1nccc(C(F)(F)F)n1 [Compound 71A] | 200 | 4 | 90 | 200 | 20 | 40
CCN1CCN(CCCNC(=O)c2ccc3c(c2)S/C(=C(/C(N)=O)c2nccc(C(F)(F)F)n2)N3)CC1 [Compound 56A] | 40 | 20 | 40 | 700 | 20 | 20
